Literature values in patent US20140018438A1, “METHOD OF DESTROYING BACTERIAL BIOFILM USING STERILE INTRAVENOUS OR INTRACAVERNOUS GLYCERIN” (priority 2012, published 2014).

Conditions: sterile product for intravenous administration, generally 3% concentration at 80-100 milliliters per hour

OCC(O)CO [Glycerin]
allergic reactions / safety profile: free of allergic reactions
